Literature values, collected in patent publication US9107877B2, “Method of treating onychomycosis” (Polichem SA, priority 2013, dated 2015).

What was measured:
onychomycosis [1] = conditions: oral, 250 mg tablet a day for 12 weeks
onychomycosis [2] = conditions: 48 weeks of daily topical treatment, 12-week follow up

For `CN(C/C=C/C#CC(C)(C)C)Cc1cccc2ccccc12` [terbinafine], the “Complete cure, % of patients” value (onychomycosis [1]) is listed as 38%.

For `Cc1cc(C2CCCCC2)n(O)c(=O)c1` [ciclopirox], the Complete cure (onychomycosis [2]) is listed as “about 13%” and the Responders (onychomycosis [2]) is listed as about 30%.
